Bounds are passed on as bounds.

Results on 67 molecules are retold here after the Kinase Knowledgebase extract (Sharma et al. 2016).

The target of this assay is PIK3CG (human) (UniProt P48736). Nature of the assay: Inhibition of PIK3CG Kinase Activity.
Chain of PIK3CG (human) (P48736 whole entry, looked up): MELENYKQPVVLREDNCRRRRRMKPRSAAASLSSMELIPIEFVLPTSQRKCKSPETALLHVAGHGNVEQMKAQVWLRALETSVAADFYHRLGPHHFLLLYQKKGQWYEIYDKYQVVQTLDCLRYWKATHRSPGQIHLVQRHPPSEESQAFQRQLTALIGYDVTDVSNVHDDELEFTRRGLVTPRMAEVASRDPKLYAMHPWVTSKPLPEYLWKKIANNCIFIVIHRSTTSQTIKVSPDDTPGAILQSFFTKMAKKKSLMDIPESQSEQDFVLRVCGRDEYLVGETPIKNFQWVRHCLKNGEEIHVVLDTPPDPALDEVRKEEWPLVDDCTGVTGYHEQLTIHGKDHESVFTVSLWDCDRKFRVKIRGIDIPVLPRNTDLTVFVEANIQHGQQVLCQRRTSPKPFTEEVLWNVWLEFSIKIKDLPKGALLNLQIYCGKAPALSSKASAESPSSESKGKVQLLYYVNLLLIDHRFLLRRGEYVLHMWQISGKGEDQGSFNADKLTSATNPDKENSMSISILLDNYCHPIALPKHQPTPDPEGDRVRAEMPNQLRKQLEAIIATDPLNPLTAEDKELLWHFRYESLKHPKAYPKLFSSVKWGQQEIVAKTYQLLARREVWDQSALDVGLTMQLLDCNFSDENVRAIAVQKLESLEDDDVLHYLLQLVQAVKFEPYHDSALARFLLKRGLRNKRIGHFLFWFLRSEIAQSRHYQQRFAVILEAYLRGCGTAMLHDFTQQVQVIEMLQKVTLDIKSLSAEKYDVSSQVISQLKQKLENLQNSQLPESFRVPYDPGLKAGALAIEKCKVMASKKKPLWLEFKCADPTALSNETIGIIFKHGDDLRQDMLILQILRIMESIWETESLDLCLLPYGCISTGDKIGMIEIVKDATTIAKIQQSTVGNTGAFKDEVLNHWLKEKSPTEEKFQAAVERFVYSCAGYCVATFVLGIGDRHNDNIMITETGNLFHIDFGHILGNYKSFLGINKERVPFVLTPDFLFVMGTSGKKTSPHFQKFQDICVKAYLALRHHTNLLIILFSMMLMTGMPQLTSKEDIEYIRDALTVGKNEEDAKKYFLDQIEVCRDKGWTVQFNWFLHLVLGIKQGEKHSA
What is called IC50 is the midpoint of a concentration-inhibition curve. Higher therefore signals weaker potency. For `CC(=O)Nc1nc2c(s1)-c1c(c(C3CC3)nn1-c1ccc(C(=O)N(C)[C@@H]3CCN(CC4CCCC4)C3)c(Cl)c1)CC2`, the IC50 is < 600 nM.

On to `CC(=O)Nc1nc2c(s1)-c1c(c(C3CCCC3)nn1-c1ccc(C(=O)N(C)[C@H]3CC[C@@H](N4CCCC4)CC3)cc1Cl)CC2`, for which the IC50 was < 600 nM.

For the molecule `CC(=O)Nc1nc2c(s1)-c1c(c(C3CC3)nn1[C@H]1CC[C@H](C(=O)NC3CCN(C4CCCC4)CC3)CC1)CC2`, the IC50 is < 600 nM.

On to `CC(=O)Nc1nc2c(s1)-c1c(c(C3CC3)nn1-c1ccc(CC(=O)N(C)[C@H]3CC[C@@H](N4CCCC4)CC3)cc1Cl)CC2`, for which the half-inhibitory concentration (IC50) is < 600 nM.

For `CC(=O)Nc1nc2c(s1)-c1c(c(C3CC3)nn1-c1ccc(C(=O)NC[C@H]3CCNC3)c(Cl)c1)CC2`, the IC50 was < 600 nM.

On to `CC(=O)Nc1nc2c(s1)-c1c(c(C3CC3)nn1-c1ccc(C(=O)N[C@H]3CC[C@@H](N4CCCCC4)CC3)c(F)c1)CC2`, for which the IC50 is < 600 nM.

For `CC(=O)Nc1nc2c(s1)-c1c(c(C3CC3)nn1-c1ccc(C(=O)NC3CCN(C4CCOCC4)CC3)c(Cl)c1)CC2`, the IC50 was < 600 nM.

`CC(=O)Nc1nc2c(s1)-c1c(c(C3CC3)nn1-c1ccc(C(=O)N(C)CC3CCN(CC4CCCC4)CC3)c(Cl)c1)CC2`: the IC50 was < 600 nM.

Take `CC(=O)Nc1nc2c(s1)-c1c(c(C3CC3)nn1C1CCC(C(=O)NC3CCN(C4CCCC4)CC3)CC1)CC2` (configuration not stated): the IC50 was < 600 nM.

As for `CC(=O)Nc1nc2c(s1)-c1c(c(C3CC3)nn1C1CCN(C(=O)N3CCN(C4CCCC4)CC3)CC1)CC2`, the IC50 was < 600 nM.

With `CC(=O)Nc1nc2c(s1)-c1c(c(C3CC3)nn1-c1ccc(C(=O)N(C)[C@H]3CC[C@@H](N(C)CC4CC4)CC3)c(F)c1)CC2`, the IC50 was < 600 nM.

Turning to `CC(=O)Nc1nc2c(s1)-c1c(c(C3CC3)nn1-c1ccc(C(=O)N[C@H]3CC[C@@H](N4CCOCC4)CC3)cc1C)CC2`, the IC50 was < 600 nM.

With `CC(=O)Nc1nc2c(s1)-c1c(c(C3CC3)nn1-c1ccc(C(=O)N(C)[C@@H]3CCN(C4CCCC4)C3)c(C)c1)CC2`, the IC50 was < 600 nM.

Consider `CCN(C(=O)c1ccc(-n2nc(C3CC3)c3c2-c2sc(NC(C)=O)nc2CC3)cc1C)[C@H]1CC[C@@H](N2CCCC2)CC1`, for which the IC50 was < 600 nM.

Regarding `CC(=O)Nc1nc2c(s1)-c1c(c(C3CC3)nn1C1CCN(C(=O)N3CCN(C(C)C)CC3)CC1)CC2`, the IC50 is < 600 nM.

`CC(=O)Nc1nc2c(s1)-c1c(c(C3CC3)nn1-c1ccc(C(=O)N[C@H]3CC[C@@H](N(C)CC4CCCC4)CC3)cc1C)CC2`: the IC50 was < 600 nM.

For `CC(=O)Nc1nc2c(s1)-c1c(c(C3CC3)nn1-c1ccc(C(=O)NC3CCN(C4CCCCC4)CC3)c(C)c1)CC2`, the IC50 was < 600 nM.

For `CC(=O)Nc1nc2c(s1)-c1c(c(C3(C)CC3)nn1-c1ccc(C(=O)NC3CCN(CC4CCCC4)CC3)cc1Cl)CC2`, the IC50 is < 600 nM.

For the molecule `CC(=O)Nc1nc2c(s1)-c1c(c(C3CC3)nn1-c1ccc(C(=O)N[C@H]3CC[C@@H](C(N)=O)CC3)cc1Cl)CC2`, the IC50 was < 600 nM.

For `CC(=O)Nc1nc2c(s1)-c1c(c(C3CC3)nn1-c1ccc(C(=O)N[C@H]3CC[C@@H](N(C)CC4CCCC4)CC3)cc1Cl)CC2`, the IC50 was < 600 nM.

On to `CC(=O)Nc1nc2c(s1)-c1c(c(C3CC3)nn1-c1ccc(C(=O)N[C@H]3CC[C@@H](N(C)CC4CCCC4)CC3)c(F)c1)CC2`, for which the half-inhibitory concentration (IC50) was < 600 nM.

In the case of `CNC(=O)C1CCC(n2nc(C3CC3)c3c2-c2sc(NC(C)=O)nc2CC3)CC1` (configuration not stated), the IC50 is < 600 nM.

With `CCCN1CC[C@@H](NC(=O)c2ccc(-n3nc(C4CC4)c4c3-c3sc(NC(C)=O)nc3CC4)cc2Cl)C1`, the IC50 is < 600 nM.

For `CC(=O)Nc1nc2c(s1)-c1c(c(C3CC3)nn1-c1ccc(C(=O)NC[C@@H]3CCCN3CC3CCCC3)c(Cl)c1)CC2`, the IC50 was < 600 nM.

Consider `CC(=O)Nc1nc2c(s1)-c1c(c(C3CC3)nn1-c1ccc(C(=O)N(C)[C@H]3CC[C@@H](N(C)CC4CCCC4)CC3)cc1C)CC2`, for which the IC50 is < 600 nM.

As for `CC(=O)Nc1nc2c(s1)-c1c(c(C3CC3)nn1-c1ccc(N(C)C(=O)[C@H]3CC[C@@H](N4CCCC4)CC3)cc1Cl)CC2`, the IC50 is < 600 nM.

As to `CC(=O)Nc1nc2c(s1)-c1c(c(C3CC3)nn1C1CCN(C(=O)N3CCC(N(C)C)CC3)CC1)CC2`, the IC50 is < 600 nM.

On to `CC(=O)Nc1nc2c(s1)-c1c(c(C3CC3)nn1-c1ccc(C(=O)NC3CCN(C4CCCC4)CC3)c(Cl)c1)CC2`, for which the concentration for half-maximal inhibition (IC50) was < 600 nM.

As for `CC(=O)Nc1nc2c(s1)-c1c(c(C3CC3)nn1-c1ccc(C(=O)NC[C@@H]3CCNC3)c(Cl)c1)CC2`, the IC50 is < 600 nM.

For the molecule `CNC(=O)Cc1ccc(-n2nc(C3CC3)c3c2-c2sc(NC(C)=O)nc2CC3)c(Cl)c1`, the IC50 was < 600 nM.

Take `CC(=O)Nc1nc2c(s1)-c1c(c(C3CC3)nn1-c1ccc(NCC3CCN(C4CCCC4)CC3)cc1Cl)CC2`: the IC50 was < 600 nM.

With `CCN(C(=O)c1ccc(-n2nc(C3CC3)c3c2-c2sc(NC(C)=O)nc2CC3)c(Cl)c1)[C@H]1CC[C@@H](N2CCCC2)CC1`, the IC50 was < 600 nM.

As to `CC(=O)Nc1nc2c(s1)-c1c(c(C3CC3)nn1-c1ccc(C(=O)N3CCC(N4CCCC4)CC3)c(C)c1)CC2`, the IC50 was < 600 nM.

As to `CC(=O)Nc1nc2c(s1)-c1c(c(C3CC3)nn1-c1ccc(C(=O)N[C@@H]3CCN(CC4CCCC4)C3)c(F)c1)CC2`, the IC50 was < 600 nM.

Take `CC(=O)Nc1nc2c(s1)-c1c(c(C3CCC3)nn1-c1ccc(C(=O)NC3CCN(C4CCCC4)CC3)cc1Cl)CC2`: the IC50 is < 600 nM.

As for `CCCN1CCC(NC(=O)c2ccc(-n3nc(C4(C)CC4)c4c3-c3sc(NC(C)=O)nc3CC4)c(Cl)c2)CC1`, the IC50 is < 600 nM.

For `CC(=O)Nc1nc2c(s1)-c1c(c(C3CC3)nn1-c1ccc(C(=O)N(C)[C@H]3CCN(C4CCCCC4)C3)c(C)c1)CC2`, the IC50 was < 600 nM.

As to `CC(=O)Nc1nc2c(s1)-c1c(c(C3CC3)nn1-c1ccc(C(=O)N[C@H]3CC[C@@H](N4CCCCC4)CC3)cc1Cl)CC2`, the IC50 is < 600 nM.

Take `CC(=O)Nc1nc2c(s1)-c1c(c(C3CC3)nn1-c1ccc(C(=O)N(C)Cc3ccncc3)cc1Cl)CC2`: the IC50 is < 600 nM.

For `CC(=O)Nc1nc2c(s1)-c1c(c(C3CC3)nn1-c1ccc(C(=O)NC3CCN(CC4CCCCC4)CC3)cc1F)CC2`, the half-maximal inhibitory concentration (IC50) is < 600 nM.

With `CC(=O)Nc1nc2c(s1)-c1c(c(C3CCC3)nn1-c1ccc(C(=O)NC3CCN(C(C)C)CC3)cc1Cl)CC2`, the 50% inhibitory concentration (IC50) was < 600 nM.

With `CC(=O)Nc1nc2c(s1)-c1c(c(C3CCC3)nn1-c1ccccc1Cl)CC2`, the IC50 is < 600 nM.

In the case of `CC(=O)Nc1nc2c(s1)-c1c(c(C3CC3)nn1-c1ccc(C(=O)N[C@H]3CC[C@H](C(N)=O)CC3)cc1Cl)CC2`, the IC50 is < 600 nM.

On to `CC(=O)Nc1nc2c(s1)-c1c(c(C3CC3)nn1-c1ccc(C(=O)N(C)[C@H]3CCN(C4CCCCC4)C3)c(F)c1)CC2`, for which the IC50 is < 600 nM.

Take `CC(=O)Nc1nc2c(s1)-c1c(c(C3CC3)nn1-c1ccc(C(=O)NC3CCN(C4CCCC4)CC3)c(F)c1)CC2`: the IC50 is < 600 nM.

Turning to `CC(=O)Nc1nc2c(s1)-c1c(c(C3CC3)nn1-c1ccc(C(=O)N[C@H]3CC[C@@H](N4CCOCC4)CC3)c(Cl)c1)CC2`, the IC50 is < 600 nM.

As to `CC(=O)Nc1nc2c(s1)-c1c(c(C3CC3)nn1-c1ccc(C(=O)N3CCC(N(C)C4CCCC4)CC3)c(C)c1)CC2`, the IC50 is < 600 nM.

Regarding `CC(=O)Nc1nc2c(s1)-c1c(c(C3CC3)nn1-c1ccc(C(=O)N(C)CC3CCN(C4CCCC4)CC3)c(Cl)c1)CC2`, the IC50 was < 600 nM.

For the molecule `CC(=O)Nc1nc2c(s1)-c1c(c(C3CC3)nn1-c1ccc(C(=O)N(C)[C@@H]3CCN(CC4CCCC4)C3)cc1Cl)CC2`, the IC50 was < 600 nM.

`CC(=O)Nc1nc2c(s1)-c1c(c(C3CC3)nn1-c1ccc(NCC3CCN(C(=O)OC(C)(C)C)CC3)cc1Cl)CC2`: the IC50 is < 600 nM.

Turning to `CC(=O)Nc1nc2c(s1)-c1c(c(C3CC3)nn1C1CCC(C(=O)N[C@H]3CC[C@@H](N4CCCC4)CC3)CC1)CC2` (some centres not stated), the IC50 was < 600 nM.

Consider `CNC(=O)c1ccc(-n2nc(C3CCC3)c3c2-c2sc(NC(C)=O)nc2CC3)c(Cl)c1`, for which the IC50 was < 600 nM.

Take `CC(=O)Nc1nc2c(s1)-c1c(c(C3CC3)nn1-c1ccc(C(=O)N(C)[C@H]3CC[C@@H](N(C)CC4CCCC4)CC3)c(Cl)c1)CC2`: the IC50 is < 600 nM.

As for `CC(=O)Nc1nc2c(s1)-c1c(c(C3CC3)nn1-c1ccc(C(=O)NCC3CCN(CC4CCCC4)CC3)cc1Cl)CC2`, the IC50 was < 600 nM.

For `CC(=O)Nc1nc2c(s1)-c1c(c(C3CC3)nn1-c1ccc(C(=O)N(C)[C@H]3CC[C@@H](N4CCCC4)CC3)c(Cl)c1)CC2`, the IC50 was < 600 nM.

Take `CC(=O)Nc1nc2c(s1)-c1c(c(C3(C)CC3)nn1-c1ccc(C(=O)N[C@H]3CC[C@@H](N4CCCC4)CC3)cc1Cl)CC2`: the IC50 is < 600 nM.

In the case of `CC(=O)Nc1nc2c(s1)-c1c(c(C3CC3)nn1-c1ccc(CC(=O)NC3CCCCC3)cc1Cl)CC2`, the IC50 was < 600 nM.

For the molecule `CC(=O)Nc1nc2c(s1)-c1c(c(C3CC3)nn1-c1ccc(C(=O)N(C)[C@@H]3CCN(CC4CCCC4)C3)c(C)c1)CC2`, the IC50 was < 600 nM.

For the molecule `CCCN1CCC(C(=O)N(C)c2ccc(-n3nc(C4CC4)c4c3-c3sc(NC(C)=O)nc3CC4)c(Cl)c2)CC1`, the IC50 was < 600 nM.

Turning to `CC(=O)Nc1nc2c(s1)-c1c(c(C3CC3)nn1-c1ccc(C(=O)N[C@@H]3CCN(CC4CCCC4)C3)cc1Cl)CC2`, the IC50 was < 600 nM.

As for `CC(=O)Nc1nc2c(s1)-c1c(c(C3CC3)nn1-c1ccc(C(N)=O)cc1Cl)CC2`, the IC50 was < 600 nM.

Regarding `CC(=O)Nc1nc2c(s1)-c1c(c(C3CC3)nn1-c1ccc(C(=O)NC3CCN(C4CCCCC4)CC3)cc1Cl)CC2`, the IC50 was < 600 nM.

`CC(=O)Nc1nc2c(s1)-c1c(c(C3CC3)nn1-c1ccc(C(=O)N[C@H]3CC[C@@H](N(C)CC4CC4)CC3)c(C)c1)CC2`: the IC50 was < 600 nM.

Regarding `COc1cc(-n2nc(C3CC3)c3c2-c2sc(NC(C)=O)nc2CC3)ccc1C(=O)N(C)C1CCN(C2CCCC2)CC1`, the IC50 is < 600 nM.

For `CC(=O)Nc1nc2c(s1)-c1c(c(C3CC3)nn1-c1ccc(C(=O)NC3CCN(C4CCCCC4)CC3)c(Cl)c1)CC2`, the IC50 is < 600 nM.

For `CC(=O)Nc1nc2c(s1)-c1c(c(C3CC3)nn1-c1ccc(C(=O)N(C)[C@H]3CC[C@@H](N(C)CC4CCCC4)CC3)cc1Cl)CC2`, the IC50 was < 600 nM.

On to `CC(=O)Nc1nc2c(s1)-c1c(c(C3CC3)nn1-c1ccc(C(=O)N[C@H]3CC[C@@H](N4CCCCC4)CC3)cc1F)CC2`, for which the IC50 was < 600 nM.
